# Measured values taken from patent publication US20220403001A1, “PDE5 DERIVED REGULATORY CONSTRUCTS AND METHODS OF USE IN IMMUNOTHERAPY” (Obsidian Therapeutics, Inc., priority 2018, published 2022).
# Where “and” joins values, the source holds several entries; their conditions need not be identical. Identical values can stand only once.
# Tests used:
# [1] = biological target: T1, hPDE5 mutants (Homo sapiens, UniProt O76074); test: GFP MFI by FACS in HCT116 cells transduced with hPDE5 constructs; format: cell-based
# Experimental: (§1) Desirable qualities of a DD include, low expression of the SRE in the absence of ligand and ligand dependent stabilization of the SRE. Constructs were generated using DDs linked to GFP using an SG linker. […] The mean fluorescence intensity (MFI) of GFP was analyzed by FACS. […] Destabilizing mutation coefficient less than 1 are desirable.
# (§2) Mean fluorescence intensity (MFI) was measured by FACS. […] Destabilizing mutation coefficient ratios less than 1 are desirable.
# (§3) Mean fluorescence intensity (MFI) was measured by FACS. […] Destabilizing mutation co-efficient ratios less than 1 are desirable.
# (§4) Mean fluorescence intensity (MFI) was measured by FACS. […] Destabilizing mutation coefficient less than 1 are desirable.
# as §4
# (§5) Mean fluorescence intensity (MFI) of GFP was measured by FACS.
# (§6) Mean fluorescence intensity (MFI) was measured by FACS.
# (§7) The media containing the ligand was removed and fresh media without the ligand was added.
# (§8) The properties of the DDs were analyzed in the presence and absence of ligands via FACS as previously described.
# (§9) GFP fluorescence was measured by FACS.
# (§10) The properties of the DDs were analyzed via FACS both in the presence and absence of ligands.
# as §9
# [2] = tested on: hPDE5 mutants; test: as above; format: cell-based, human
# Experimental: as §1, §2, §3, §4, §4, §5, §6, §7, §8, §9, §10, §9
# [3] = biological target: T1, hPDE5 mutants; test: GFP FACS analysis of hPDE5 mutant library clones in NIH3T3 cell pools; conditions: for Stabilization ratio: GFP intensity 10 μM vardenafil vs DMSO
# Experimental: (§11) These constructs were packaged into lentivirus, transduced into NIH3T3 cells and select stable cell pools were derived as described below. […] Lentiviral stocks were used for transduction of NIH3T3 cells and subsequent cell pool selection. The day before transduction, NIH3T3 cells (1.8×10^6) were seeded in a T-25 flask and allowed to reach 60-70% confluency (˜1 day). The growth medium in the T-25 flask was then replaced with 1 mL virus (quickly thawed in a 37° C. water bath) and 5 μg/mL polybrene. […] Transduction medium was removed the following day and replaced with 5 mL fresh medium. At 48 hr after transduction, the medium was replaced with media containing 1 μg/mL puromycin. This puromycin medium was replaced every 3-4 days until cell pools were established (˜2 weeks).
# (§12) The mean fluorescence intensity (MFI) of GFP at 100 μM concentration treatment was set as 100% hPDE5 stabilization effect (HPE), while DMSO treatment was set as 0% effect (ZPE) of hPDE5 stabilization. The effect of the compound on hPDE5 stabilization was calculated based on the following formula: % PDE5 stabilization effect=(MFI-ZPE)/(HPE-ZPE)×100.
# (§13) Plots of the % effect versus concentration were generated with Graphpad Prism 5 and EC50 values were calculated using a four-parameter nonlinear regression model.
# (§14) Select PDE5 clones from both experiment 1 and experiment 2 were directly compared. […] The stabilization ratio was calculated as the fold change in GFP intensity in ligand treated samples compared to treatment with DMSO (i.e. in the absence of ligand) with the same construct.
# [4] = tested on: hPDE5 mutants; test: as above
# Experimental: as §11, §12, §13, §14
# [5] = tested on: hPDE5 mutants; test: GFP expression (MFI) by FACS in HEK293 cells expressing hPDE5 constructs
# Experimental: The mutant library was ligated in frame with an AcGFP reporter at C-terminus and cloned into pLVX-IRES—Puro vectors. […] DNA was extracted from the cell pool, cloned into vectors, and transformed into E. coli. Individual clones were sequenced and cloned in frame with a linker [sequence] […] HEK293 cells were transduced with individual clones and selected with puromycin.
# The GFP expression in cells expressing hPDE5 constructs was measured by FACS.
# The stability of hPDE5 mutants was measured using FACS and mean fluorescence intensity (MFI) of GFP was calculated.
# [6] = GFP intensity ligand treated vs DMSO, direct comparison of clones
# [7] = Sildenafil 0.0005 μM, 48 h, HEK293
# [8] = Sildenafil 3.33 μM, 48 h, HEK293
# [9] = Sildenafil 10 μM, 48 h, HEK293 (dose titration)
# [10] = Sildenafil 10 μM, 48 h, HEK293 (time course)
# [11] = Vardenafil 0.0005 μM, 48 h, HEK293
# [12] = Vardenafil 3.33 μM, 48 h, HEK293
# [13] = Vardenafil (10 μM), 48 h, Table 25, cell line not given in table
substance,measurement,setting,value
"OT-001075: hPDE5 wildtype construct, catalytic domain linked to AcGFP, control",Sildenafil Stabilization ratio,"[1]; 10 μM, 48 h, HCT-116",1.25
same,Vardenafil Stabilization ratio,"[1]; 10 μM, 48 h, HCT-116",1.15
same,MFI Sildenafil,"[1]; GFP, 10 μM Sildenafil 48 h, HCT-116",53736
same,MFI Vardenafil,"[1]; GFP, 10 μM Vardenafil 48 h, HCT-116",49344
same,Vardenafil Stabilization ratio,"[1]; hotspot constructs, 1 μM Vardenafil",1.83
same,Sildenafil Stabilization ratio,"[1]; hotspot constructs, 10 μM Sildenafil",0.22
same,"GFP by FACS, Sildenafil 10 μM","[1]; hotspot constructs, HCT116",219
same,"GFP by FACS, Vardenafil 1 μM","[1]; hotspot constructs, HCT116",294
same,MFI DMSO,"[2]; GFP, DMSO 48 h, HCT-116",42973
same,"GFP by FACS, Sildenafil 0 μM (DMSO)","[2]; hotspot constructs, HCT116, DMSO control of Sildenafil",989
same,"GFP by FACS, Vardenafil 0 μM (DMSO)","[2]; hotspot constructs, HCT116, DMSO control of Vardenafil",161
same,Stabilization ratio,[3]; experiment 1,1.6 and 1.5 and 1.4
same,Stabilization ratio,[3]; experiment 2,1.5
same,Stabilization ratio Sildenafil,[3]; [6],1.05
same,Stabilization ratio Tadalafil,[3]; [6],1.50
same,Stabilization ratio Vardenafil,[3]; [6],1.78
same,Mean fluorescence intensity (MFI) 10 μM VDF,"[3]; GFP, cell pools, 10 μM vardenafil 24 hr, experiment 2",45616 and 43134
same,Mean fluorescence intensity (MFI) DMSO,"[3]; GFP, cell pools, no ligand (DMSO), experiment 2",30404 and 29006
same,Fluorescence intensity Sildenafil,"[3]; median GFP fluorescence by FACS, 10 μM Sildenafil, direct comparison of clones",7082
same,Fluorescence intensity Tadalafil,"[3]; median GFP fluorescence by FACS, 10 μM Tadalafil, direct comparison of clones",10100
same,Fluorescence intensity Vardenafil,"[3]; median GFP fluorescence by FACS, 10 μM Vardenafil, direct comparison of clones",12000
same,Fluorescence intensity DMSO,"[3]; median GFP fluorescence by FACS, vehicle DMSO (no ligand), direct comparison of clones",6732
same,GFP FACS analysis (MFI),"[4]; DMSO (no ligand), SDF series, experiment 1",3140
same,GFP FACS analysis (MFI),"[4]; DMSO (no ligand), TDF series, experiment 1",9511
same,GFP FACS analysis (MFI),"[4]; DMSO (no ligand), VDF series, experiment 1",7545
same,GFP FACS analysis (MFI),"[4]; SDF 1.235 μM, experiment 1",5740
same,Percent stabilization effect,"[4]; SDF 1.235 μM, experiment 1",66.0%
same,GFP FACS analysis (MFI),"[4]; SDF 3.704 μM, experiment 1",6480
same,Percent stabilization effect,"[4]; SDF 3.704 μM, experiment 1",84.7%
same,GFP FACS analysis (MFI),"[4]; SDF 11.111 μM, experiment 1",6848
same,Percent stabilization effect,"[4]; SDF 11.111 μM, experiment 1",94.1%
same,Percent stabilization effect,"[4]; SDF 11.111 μM, experiment 2",49.7% and 88.2%
same,GFP FACS analysis (MFI),"[4]; SDF 33.333 μM, experiment 1",7025
same,Percent stabilization effect,"[4]; SDF 33.333 μM, experiment 1",98.6%
same,Percent stabilization effect,"[4]; SDF 33.333 μM, experiment 2",79.3% and 96.0%
same,Percent stabilization effect,"[4]; SDF 100 μM (set as 100%), experiment 1",100.0%
same,Percent stabilization effect,"[4]; SDF 100 μM (set as 100%), experiment 2",100.0%
same,GFP FACS analysis (MFI),"[4]; SDF 100 μM, experiment 1",7082
same,GFP FACS analysis (MFI),"[4]; SDF 100 μM, experiment 2",39638 and 65696
same,GFP FACS analysis (MFI),"[4]; TDF 1.235 μM, experiment 1",6211
same,Percent stabilization effect,"[4]; TDF 1.235 μM, experiment 1",−560.3%
same,GFP FACS analysis (MFI),"[4]; TDF 3.704 μM, experiment 1",7039
same,Percent stabilization effect,"[4]; TDF 3.704 μM, experiment 1",−419.7%
same,GFP FACS analysis (MFI),"[4]; TDF 11.111 μM, experiment 1",7388
same,Percent stabilization effect,"[4]; TDF 11.111 μM, experiment 1",−360.4%
same,GFP FACS analysis (MFI),"[4]; TDF 11.111 μM, experiment 2",89646 and 143351
same,Percent stabilization effect,"[4]; TDF 11.111 μM, experiment 2",101.2% and 136.4%
same,GFP FACS analysis (MFI),"[4]; TDF 33.333 μM, experiment 1",7688
same,Percent stabilization effect,"[4]; TDF 33.333 μM, experiment 1",−309.5%
same,GFP FACS analysis (MFI),"[4]; TDF 33.333 μM, experiment 2",97813 and 136420
same,Percent stabilization effect,"[4]; TDF 33.333 μM, experiment 2",110.9% and 123.3%
same,Percent stabilization effect,"[4]; TDF 100 μM (set as 100%), experiment 1",100.0%
same,Percent stabilization effect,"[4]; TDF 100 μM (set as 100%), experiment 2",100.0%
same,GFP FACS analysis (MFI),"[4]; TDF 100 μM, experiment 1",10100
same,GFP FACS analysis (MFI),"[4]; TDF 100 μM, experiment 2",88657 and 124011
same,GFP FACS analysis (MFI),"[4]; VDF 1.235 μM, experiment 1",7393
same,Percent stabilization effect,"[4]; VDF 1.235 μM, experiment 1",−3.4%
same,GFP FACS analysis (MFI),"[4]; VDF 1.235 μM, experiment 2",32753 and 47543
same,Percent stabilization effect,"[4]; VDF 1.235 μM, experiment 2",46.3% and 46.8%
same,GFP FACS analysis (MFI),"[4]; VDF 3.704 μM, experiment 1",7592
same,Percent stabilization effect,"[4]; VDF 3.704 μM, experiment 1",1.1%
same,GFP FACS analysis (MFI),"[4]; VDF 3.704 μM, experiment 2",36347 and 49859
same,Percent stabilization effect,"[4]; VDF 3.704 μM, experiment 2",52.0% and 52.6%
same,GFP FACS analysis (MFI),"[4]; VDF 11.111 μM, experiment 1",7964
same,Percent stabilization effect,"[4]; VDF 11.111 μM, experiment 1",9.4%
same,GFP FACS analysis (MFI),"[4]; VDF 11.111 μM, experiment 2",39279 and 50082
same,Percent stabilization effect,"[4]; VDF 11.111 μM, experiment 2",56.6% and 53.2%
same,GFP FACS analysis (MFI),"[4]; VDF 33.333 μM, experiment 1",8854
same,Percent stabilization effect,"[4]; VDF 33.333 μM, experiment 1",29.4%
same,GFP FACS analysis (MFI),"[4]; VDF 33.333 μM, experiment 2",44931 and 53578
same,Percent stabilization effect,"[4]; VDF 33.333 μM, experiment 2",65.5% and 62.0%
same,Percent stabilization effect,"[4]; VDF 100 μM (set as 100%), experiment 1",100.0%
same,Percent stabilization effect,"[4]; VDF 100 μM (set as 100%), experiment 2",100.0%
same,GFP FACS analysis (MFI),"[4]; VDF 100 μM, experiment 1",12000
same,GFP FACS analysis (MFI),"[4]; VDF 100 μM, experiment 2",66821 and 68646
same,Fold increase in MFI,"[4]; after treatment with sildenafil or vardenafil, NIH3T3",~1.5 fold
OT-001083: hPDE5-Y728L AcGFP construct,MFI,[5]; [7],4422
same,Stabilization ratio,[5]; [7],1.01
same,MFI,[5]; [8],17960
same,Stabilization ratio,[5]; [8],4.09
same,MFI,"[5]; Sildenafil 10 μM, 2 h, HEK293",7290
same,Stabilization ratio,"[5]; Sildenafil 10 μM, 2 h, HEK293",1.37
same,MFI,"[5]; Sildenafil 10 μM, 4 h, HEK293",8675
same,Stabilization ratio,"[5]; Sildenafil 10 μM, 4 h, HEK293",1.64
same,MFI,"[5]; Sildenafil 10 μM, 6 h, HEK293",10929
same,Stabilization ratio,"[5]; Sildenafil 10 μM, 6 h, HEK293",2.06
same,MFI,"[5]; Sildenafil 10 μM, 16 h, HEK293",19034
same,Stabilization ratio,"[5]; Sildenafil 10 μM, 16 h, HEK293",3.59
same,MFI,"[5]; Sildenafil 10 μM, 24 h, HEK293",27246
same,Stabilization ratio,"[5]; Sildenafil 10 μM, 24 h, HEK293",5.14
same,MFI,[5]; [9],32480
same,Stabilization ratio,[5]; [9],7.40
same,MFI,[5]; [10],34796
same,Stabilization ratio,[5]; [10],6.56
same,MFI,[5]; [11],7894
same,Stabilization ratio,[5]; [11],0.99
same,MFI,[5]; [12],134306
same,Stabilization ratio,[5]; [12],16.85
same,MFI,"[5]; Vardenafil 10 μM, 48 h, HEK293",166236
same,Stabilization ratio,"[5]; Vardenafil 10 μM, 48 h, HEK293",20.86
same,Stabilization ratio,"[5]; Vardenafil (1 μM), 48 h, Table 25, cell line not given in table",13.26
same,MFI,"[5]; Vardenafil (1 μM), 48 h, Table 25, cell line not given in table (HEK293, HCT-116, SKOV-3)",68816
same,MFI,[5]; [13],123150
same,Stabilization ratio,[5]; [13],23.72
